Data from article PMC10761696, “Avapritinib-based SAR studies unveil a binding pocket in KIT and PDGFRA” (Nature Communications, 2024).
Values joined by “and” are separate entries in the source; they are usually repeats but may differ in a detail not shown here. Identical values can stand only once. Like-named read-outs stand apart in the source and are kept apart here.

Experiments:
[1] = ref WO2022/081626; cited from earlier work
SK-LMS-1 = experiment: CellTiter-Glo (CTG) GR50, SK-LMS-1 control cell line; settings: for CTG GR50 SK-LMS-1, single determinations: raw data of Supp. Tab. 2, independent experiments, unit from Supp. Tab. 2
ZR-75-1 = experiment: CellTiter-Glo (CTG) EC50, ZR-75-1 breast cancer control cell line; format: cell-based, human; settings: Homo sapiens
Method: (§1) Cell line authenticity was confirmed by STR analysis at Eurofins Genomics. All cell lines were tested regularly for mycoplasma contamination using the Mycoplasmacheck Service at Eurofins Genomics. […] Following incubation for 24 h in a humidified atmosphere at 37 °C and 5% CO2, cells were treated with inhibitors in serial dilutions ranging from 30 µM down to 0.1 nM using an Echo650 acoustic liquid handler (Beckman Coulter). Cell viability was analyzed on day 5 using the CellTiter-Glo® assay (Promega) using 500 ms integration time. The obtained data were normalized to the plate positive control (30 µM staurosporine) and negative control (DMSO) and subsequently analyzed and fitted with the Quattro Software Suite (Quattro Research) using a four-parameter logistic model. As quality control, the Z’-factor was calculated from 16 positive and negative control values. Only assay results showing a Z’-factor ≥0.5 were used for further analysis. All experimental points were measured in duplicates for each plate and were independently replicated in at least three plates.

PDGFRA-D842V = target: T1, PDGFRA-D842V (Homo sapiens, UniProt P16234, D842V); experiment: Activity-based HTRF KinEASE assay, PDGFRA-D842V; format: biochemical
T1 construct: purchased Invitrogen PV4203 (lot #2343231B)

T1-V654A = experiment: CellTiter-Glo (CTG) GR50, T1-V654A; settings: Homo sapiens
T1-a-5258 = experiment: CellTiter-Glo (CTG) GR50, T1-a-5258; settings: Homo sapiens
T1-a-D842V = experiment: CellTiter-Glo (CTG) GR50, T1-a-D842V; settings: comparator not clearly stated
GIST-48B = experiment: CellTiter-Glo (CTG) GR50, GIST-48B control cell line (off-target toxicity); settings: ratio of GR50 values; for GIST-48B/D842V: source data sheet
MDA-MB-175VII = experiment: CellTiter-Glo (CTG) EC50, MDA-MB-175VII breast cancer control cell line; format: cell-based, human; settings: Homo sapiens, MDA-MB-175-VII
Method: as §1

KIT-D816H = KIT-D816H (Homo sapiens, UniProt P10721, D816H); experiment: Activity-based HTRF KinEASE assay, KIT-D816H; format: biochemical
GIST-T1 = experiment: CellTiter-Glo (CTG) GR50, GIST-T1; settings: for GI50: Homo sapiens
T1-T670I = experiment: CellTiter-Glo (CTG) GR50, T1-T670I; settings: Homo sapiens
MDR1 = experiment: MDCKII-MDR1 permeability assay; settings: dog; for recovery at 2 h, 10 µM: MDCKII-MDR1, assay conc. 10
[2] = MDCKII-MDR1 permeability assay; settings: dog
[3] = ZR-75-1, mean ± s.d., n = 3, control cell line, read-out: CTG EC50 ZR-75-1
[4] = ZR-75-1, raw data of Supp. Tab. 2, independent experiments, unit from Supp. Tab. 2, read-out: CTG EC50 ZR-75-1, single determinations
[5] = mean ± s.d., n ≥ 3, ATP at KM (14 µM), read-out: HTRF IC50 PDGFRA-D842V
[6] = raw data of Table 1, independent experiments 1-3, unit from Table 1, read-out: HTRF IC50 PDGFRA-D842V, single determinations
[7] = read-out: KIT CTG GR50 T1-V654A, mean ± s.d., n ≥ 3 (* n = 2 for ava)
[8] = read-out: CTG GR50 T1-a-5258, single determinations, raw data of Supp. Tab. 1, independent experiments, unit from Supp. Tab. 1
[9] = read-out: PDGFRA CTG GR50 T1-a-5258, mean ± s.d., n ≥ 3, triple mutant D842V, G652E, V658A
[10] = read-out: CTG EC50 MDA-MB-175VII, mean ± s.d., n = 3, control cell line
[11] = read-out: CTG EC50 MDA-MB-175VII, single determinations, raw data of Supp. Tab. 2, independent experiments, unit from Supp. Tab. 2
[12] = mean ± s.d., n ≥ 3, ATP at KM (12 µM), read-out: HTRF IC50 KIT-D816H
[13] = raw data of Table 1, independent experiments, unit from Table 1, read-out: HTRF IC50 KIT-D816H, single determinations
[14] = GISTT1, read-out: CTG GR50 GIST-T1, single determinations, raw data of Table 1, independent experiments, unit from Table 1
[15] = GISTT1, read-out: KIT CTG GR50 GIST-T1, mean ± s.d., n ≥ 3, GR50 half-maximal growth inhibition rate
[16] = read-out: CTG GR50 T1-T670I, single determinations, raw data of Supp. Tab. 1, independent experiments, unit from Supp. Tab. 1
[17] = read-out: KIT CTG GR50 T1-T670I, mean ± s.d., n ≥ 3

KIT-D816H, sequence (P10721 26-976 D816H): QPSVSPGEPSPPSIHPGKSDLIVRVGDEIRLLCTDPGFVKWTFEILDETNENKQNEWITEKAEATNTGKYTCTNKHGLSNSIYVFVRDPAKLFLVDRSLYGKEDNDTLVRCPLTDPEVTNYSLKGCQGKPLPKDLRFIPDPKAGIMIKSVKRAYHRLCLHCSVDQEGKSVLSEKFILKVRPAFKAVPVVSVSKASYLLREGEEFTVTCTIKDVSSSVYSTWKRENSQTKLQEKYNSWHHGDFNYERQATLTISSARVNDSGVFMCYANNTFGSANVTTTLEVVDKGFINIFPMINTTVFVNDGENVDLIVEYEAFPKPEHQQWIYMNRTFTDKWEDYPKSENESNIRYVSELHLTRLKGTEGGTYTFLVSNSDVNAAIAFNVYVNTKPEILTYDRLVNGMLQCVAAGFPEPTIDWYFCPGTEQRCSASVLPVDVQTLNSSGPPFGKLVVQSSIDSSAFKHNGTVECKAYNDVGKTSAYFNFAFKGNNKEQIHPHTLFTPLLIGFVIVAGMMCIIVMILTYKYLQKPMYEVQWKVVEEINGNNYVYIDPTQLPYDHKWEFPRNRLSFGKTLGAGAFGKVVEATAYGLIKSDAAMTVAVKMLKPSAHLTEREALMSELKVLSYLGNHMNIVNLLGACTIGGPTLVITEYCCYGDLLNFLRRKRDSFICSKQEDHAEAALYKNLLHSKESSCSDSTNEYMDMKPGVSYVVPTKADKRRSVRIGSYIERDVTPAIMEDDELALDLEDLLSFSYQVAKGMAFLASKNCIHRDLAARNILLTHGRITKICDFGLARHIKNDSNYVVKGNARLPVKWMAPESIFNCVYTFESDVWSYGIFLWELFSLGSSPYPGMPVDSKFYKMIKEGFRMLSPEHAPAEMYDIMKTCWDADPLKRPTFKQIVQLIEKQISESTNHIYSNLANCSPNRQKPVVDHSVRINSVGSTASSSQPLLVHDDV
T1 sequence (P16234 24-1089 D842V): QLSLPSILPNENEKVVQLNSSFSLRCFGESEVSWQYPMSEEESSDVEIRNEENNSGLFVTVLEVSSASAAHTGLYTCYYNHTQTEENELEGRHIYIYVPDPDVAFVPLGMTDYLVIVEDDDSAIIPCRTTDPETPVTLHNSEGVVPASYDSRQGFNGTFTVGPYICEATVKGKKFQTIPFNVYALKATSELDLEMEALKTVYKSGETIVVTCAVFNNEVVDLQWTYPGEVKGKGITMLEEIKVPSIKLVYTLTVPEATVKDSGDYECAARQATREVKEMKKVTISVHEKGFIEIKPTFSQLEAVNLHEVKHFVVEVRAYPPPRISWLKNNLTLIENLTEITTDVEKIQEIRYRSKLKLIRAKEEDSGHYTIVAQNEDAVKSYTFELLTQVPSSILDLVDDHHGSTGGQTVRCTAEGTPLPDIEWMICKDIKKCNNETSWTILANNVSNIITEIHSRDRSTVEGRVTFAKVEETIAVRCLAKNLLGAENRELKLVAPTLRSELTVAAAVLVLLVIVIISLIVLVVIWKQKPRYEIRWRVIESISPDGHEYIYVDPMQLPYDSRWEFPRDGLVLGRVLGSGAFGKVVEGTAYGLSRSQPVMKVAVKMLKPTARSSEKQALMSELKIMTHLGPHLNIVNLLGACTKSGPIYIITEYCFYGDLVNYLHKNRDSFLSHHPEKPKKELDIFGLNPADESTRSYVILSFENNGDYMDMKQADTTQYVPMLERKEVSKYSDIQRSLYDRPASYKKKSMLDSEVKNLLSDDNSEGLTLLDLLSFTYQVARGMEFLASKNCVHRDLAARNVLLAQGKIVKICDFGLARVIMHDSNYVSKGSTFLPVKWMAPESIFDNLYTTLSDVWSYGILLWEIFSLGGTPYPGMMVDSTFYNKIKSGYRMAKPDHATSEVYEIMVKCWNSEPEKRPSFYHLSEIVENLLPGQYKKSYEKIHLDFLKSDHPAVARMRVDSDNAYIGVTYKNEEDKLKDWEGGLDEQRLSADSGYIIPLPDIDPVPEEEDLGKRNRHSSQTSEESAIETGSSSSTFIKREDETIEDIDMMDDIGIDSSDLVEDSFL

Row | EC50 (ZR-75-1; [3]) | EC50 (ZR-75-1; [4]) | IC50 (PDGFRA-D842V; [5]) | IC50 (PDGFRA-D842V; [6]) | EC50 (MDA-MB-175VII; [10]) | EC50 (MDA-MB-175VII; [11]) | IC50 (KIT-D816H; [12]) | IC50 (KIT-D816H; [13]) | SMILES | CTG GR50 SK-LMS-1, single determinations (SK-LMS-1) | GI50 (T1-V654A; [7]) | GI50 (T1-a-5258; [8]) | GI50 (T1-a-5258; [9]) | ratio GIST-48B/ T1-a-D842V (GIST-48B) | GIST-48B/D842V (GIST-48B) | GI50 (GIST-T1; [14]) | GI50 (GIST-T1; [15]) | GI50 (T1-T670I; [16]) | GI50 (T1-T670I; [17]) | also measured
1 | – | – | – | – | – | – | – | – | C[C@](N)(c1ccc(F)cc1)c1cnc(N2CCN(c3ncnn4cc(-c5cnn(CCO)c5)cc34)CC2)nc1 [BLU-263] | – | – | – | – | – | – | – | – | – | – | BBB permeability compared to avapritinib [1]: less BBB permeable compared to avapritinib
2 | ≥ 10000 nM | ≥ 10000 nM | 749 ± 142 nM | 563 nM and 909 nM and 773 nM | ≥ 10000 nM | ≥ 10000 nM | 204 ± 84 nM | 283 nM and 116 nM and 213 nM | Cn1cc(-c2cc3c(N4CCC5(CC4)CN(c4ncc(Cc6ccccc6)cn4)C5)ncnn3c2)cn1 [Compound 7] | ≥10 µM | 6730 ± 439 nM | 9970 nM | 9520 ± 810 nM | 1 | 1.22 | 824 nM | 709 ± 196 nM | ≥ 10000 nM | ≥ 10000 nM | GI50 (T1-V654A; read-out: CTG GR50 T1-V654A, single determinations, raw data of Supp. Tab. 1, independent experiments, unit from Supp. Tab. 1): 6130 nM; fold decrease in potency, T1-a-D842V (T1-a-D842V): > 500 fold; fold decrease in potency, GIST-T1 (GIST-T1; comparator not clearly stated): ~ 17 fold
3 | ≥ 10000 nM | ≥ 10000 nM | 0.2 ± 0.1 nM | 0.3 nM and 0.2 nM and 0.1 nM | ≥ 10000 nM | ≥ 10000 nM | 0.6 ± 0.4 nM | 1.1 nM and 0.3 nM and 0.53 nM | COC(=O)N[C@@](C)(c1ccc(F)cc1)c1cnc(N2CCN(c3ncnn4cc(-c5cnn(C)c5)cc34)CC2)nc1 [Compound 12] | 6.084 µM and 5.919 µM and 10 µM | 474 ± 155 nM | 2400 nM | 2220 ± 350 nM | 256 | 256 | 71 nM | 60 ± 12 nM | 620 nM | 695 ± 135 nM | CTG GR50 SK-LMS-1 (SK-LMS-1; mean ± s.d., n = 3, control cell line): 7.334 ± 2.31 µM and 7.334 µM; efflux ratio at 2 h, 10 µM (MDR1; MDCK-MDR1): 0.22; recovery at 2 h, 10 µM (MDR1; MDCK-MDR1, Recovery A->B): 25.4%; recovery at 2 h, 10 µM (MDR1; MDCK-MDR1, Recovery B->A): 49.7%; Papp B→A at 2 h, 10 µM ([2]; MDCK-MDR1): 2.76 ×10⁻⁶ cm/s; Papp A→B at 2 h, 10 µM ([2]; MDCK-MDR1, MDCKII-MDR1 (Papp A→B), at 10 µM, 2 h, 37 °C, unit inferred): 12.4 ×10⁻⁶ cm/s; Papp A→B at 2 h, 10 µM ([2]; MDCK-MDR1, Papp A->B, MDCKII-MDR1, assay conc. 10, apical to basolateral): 12.4 ×10⁻⁶ cm/s
